Activity calls are given as the source filed them. The calls are words filed in the database; no cut-off is given here.
Experiments:
U-937 [1] = assay: Suppression of PMA-induced growth inhibition of human U937 cells at 1000 nM after 72 hrs by particle counter based cell counting assay; type: functional
U-937 [2] = assay: Inhibition of PMA-induced cell attachment of human U937 cells at 1000 nM after 60 hrs by particle counter based cell counting assay; type: functional
U-937 [3] = assay: Induction of cell attachment of human U937 cells at 0.1 nM to 1000 nM after 60 hrs by particle counter based cell counting assay; type: functional
Toledo [4] = assay: Potency index, ratio of IC50 for neristatin-1 to IC50 for test compound against human Toledo cells after 72 hrs by particle counter based cell counting assay; type: functional
U-937 [5] = assay: Inhibition of PMA-induced TNFalpha secretion in human U937 cells at 0.01 nM to 10000 nM by real time qPCR method; type: functional, cell-based
U-937 [6] = assay: Growth inhibition of human U937 cells at 0.1 nM to 1000 nM after 72 hrs by particle counter based cell counting assay; type: functional
[7] = molecular target: Protein kinase C alpha type (Homo sapiens, UniProt P17252); assay: Inhibition of [20-3H]phorbol 12,13-dibutyrate binding to human PKCalpha by scintillation counting based poly(ethylene) glycol precipitation assay
U-937 [8] = assay: Induction of TNFalpha secretion in human U937 cells at 0.01 nM to 10000 nM by real time qPCR method; type: functional, cell-based
U-937 [9] = assay: Induction of TNFalpha secretion in human U937 cells at 0.01 nM to 10000 nM by real time qPCR method relative to PMA; type: functional
U-937 [10] = assay: Growth inhibition of human U937 cells at 0.1 nM to 3000 nM after 72 hrs by particle counter based cell counting assay; type: functional
U-937 [11] = assay: Growth inhibition of human U937 cells at 1000 nM in presence of 10 nM PMA after 72 hrs by particle counter based cell counting assay; type: functional
U-937 [12] = assay: Induction of cell attachment of human U937 cells at 0.1 nM to 3000 nM after 60 hrs by particle counter based cell counting assay; type: functional
[13] = Growth inhibition of human Toledo cells after 72 hrs by particle counter based cell counting assay; type: functional
Toledo [14] = assay: Potency index, ratio of IC50 for Merle-43 to IC50 for test compound against human Toledo cells after 72 hrs by particle counter based cell counting assay; type: functional

| SMILES | inhibition (U-937 [1]) | inhibition (U-937 [2]) | Activity (U-937 [3]) | Ratio IC50 (Toledo [4]) | inhibition (U-937 [5]) | growth inhibition (GI) (U-937 [6]) | Ki [7] | Activity (U-937 [8]) | Activity (U-937 [9]) | growth inhibition (GI) (U-937 [10]) | growth inhibition (GI) (U-937 [11]) | Activity (U-937 [12]) | IC50 [13] | Ratio IC50 (Toledo [14]) |
| --- | --- | --- | --- | --- | --- | --- | --- | --- | --- | --- | --- | --- | --- | --- |
| CCC/C=C/C=C/C(=O)O[C@H]1/C(=C/C(=O)OC)C[C@H]2C[C@H]([C@@H](C)O)OC(=O)C[C@H](O)C[C@@H]3C[C@H](OC(C)=O)C(C)(C)[C@](O)(C[C@@H]4C/C(=C/C(=O)OC)C[C@H](/C=C/C(C)(C)[C@]1(O)O2)O4)O3 [BRYOSTATIN 1] | Active | Active | inactive | 17 | Active | inactive | 0.48 nM | inactive | – | – | – | – | – | – |
| CCCCCCCCCCCCCC(=O)O[C@@H]1[C@@H](C)[C@@]2(O)[C@@H](C=C(CO)C[C@]3(O)C(=O)C(C)=C[C@@H]23)[C@@H]2C(C)(C)[C@]12OC(C)=O [PHORBOL MYRISTATE ACETATE] | – | – | Active | – | – | 50% | – | Active | – | – | – | – | – | – |
| CCCCCCCC(=O)O[C@H]1/C(=C/C(=O)OC)C[C@H]2C[C@@H](O)[C@@H](C)OC(=O)C[C@H](O)C[C@@H]3C[C@H](OC(C)=O)C(C)(C)[C@](O)(CCOC(=O)/C=C/C(C)(C)[C@]1(O)O2)O3 | – | – | – | – | – | – | – | – | 60% | Active | Active | Active | – | – |
| COC(=O)/C=C1/C[C@H]2C[C@]3(O)O[C@H](C[C@@H](O)CC(=O)O[C@H](C)[C@H](O)C[C@@H]4C[C@@H]5CC(=O)O[C@@]5(O4)C(=O)C(C)(C)/C=C/[C@@H](C1)O2)C[C@H](OC(=O)C(C)(C)C)C3(C)C | Active | Active | inactive | – | Active | inactive | 21.2 nM | inactive | – | – | – | – | 1.58 nM | 2.5 |
